Drawing on US9181195B2, “Sigma receptor inhibitors” (Laboratorios Del Dr. Esteve, S.A., priority 2010, dated 2015), this text covers Ki for 25 compounds.

Each structure is given as a SMILES string. Where a name gives a salt, the structure may show the parent alone.

The target in the assay is T1, σ1-receptor (Cavia porcellus, UniProt Q60492).
T1 construct: guinea pig brains were homogenized; from tissue; host or cells: guinea pig brain membranes
Nature of the assay: σ1-receptor binding assay, [3H](+)-pentazocine, guinea pig brain membranes. The conditions noted are these: [3H](+)-pentazocine 0.5 nM, non-specific binding 1 μM haloperidol, 37° C., 150 min. How it is done:
Some representative compounds of the invention were tested for their activity as sigma (sigma-1) inhibitors. The following protocol was followed:
Brain membrane preparation and binding assays for the σ1-receptor were performed as described (DeHaven-Hudkins et al., 1992) with some modifications. In brief, guinea pig brains were homogenized in 10 vols. (w/v) of Tris-HCl 50 mM 0.32 M sucrose, pH 7.4, with a Kinematica Polytron PT 3000 at 15000 r.p.m. for 30 s. The homogenate was centrifuged at 1000 g for 10 min at 4° C. and the supernatants collected and centrifuged again at 48000 g for 15 min at 4° C. The pellet was resuspended in 10 volumes of Tris-HCl buffer (50 mM, pH 7.4), incubated at 37° C. for 30 min, and centrifuged at 48000 g for 20 min at 4° C. Following this, the pellet was resuspended in fresh Tris-HCl buffer (50 mM, pH 7.4) and stored on ice until use.
Each assay tube contained 10 μL of [^3H](+)-pentazocine (final concentration of 0.5 nM), 900 μL of the tissue suspension to a final assay volume of 1 mL and a final tissue concentration of approximately 30 mg tissue net weight/mL. Non-specific binding was defined by addition of a final concentration of 1 μM haloperidol. All tubes were incubated at 37° C. for 150 min before termination of the reaction by rapid filtration over Schleicher & Schuell GF 3362 glass fibre filters [previously soaked in a solution of 0.5% polyethylenimine for at least 1 h]. Filters were then washed with four times with 4 mL of cold Tris-HCl buffer (50 mM, pH 7.4). Following addition of scintillation cocktail, the samples were allowed to equilibrate overnight. The amount of bound radioactivity was determined by liquid scintillation spectrometry using a Wallac Winspectral 1414 liquid scintillation counter. Protein concentrations were determined by the method of Lowry et al, (1951).

T1 sequence (Q60492 whole entry): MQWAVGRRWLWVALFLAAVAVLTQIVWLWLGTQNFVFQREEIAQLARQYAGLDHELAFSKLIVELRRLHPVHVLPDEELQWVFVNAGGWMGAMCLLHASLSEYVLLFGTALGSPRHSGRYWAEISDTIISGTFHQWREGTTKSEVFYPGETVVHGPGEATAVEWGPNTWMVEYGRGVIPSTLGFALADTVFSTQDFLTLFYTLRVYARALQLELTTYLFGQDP

Consider `Cc1cc(CCCN2CCOCC2)nn1-c1ccc2ccccc2c1` [Compound 4, 4-{3-[5-Methyl-1-(2-naphthyl)-1H-pyrazol-3-yl]propyl}morpholine], for which the Ki amounted to 132 nM.

`Clc1ccc(-n2ccc(CCCCN3CCOCC3)n2)cc1Cl` [Compound 18, 4-(4-(1-(3,4-dichlorophenyl)-1H-pyrazol-3-yl)butyl)morpholine] registered a Ki of 6.28 nM. The figure for `Cc1cc(COCCN2CCOCC2)nn1-c1ccc(Cl)c(Cl)c1` [Compound 1, 4-(2-{[1-(3,4-dichlorophenyl)-5-methyl-1H-pyrazol-3-yl]methoxy}ethyl)morpholine] is 13.8 nM; for `Cc1cc(COCCN2C[C@@H](C)O[C@@H](C)C2)nn1-c1ccc(Cl)c(Cl)c1` [Compound 11, (2S,6R)-4-(2-((1-(3,4-dichlorophenyl)-5-methyl-1H-pyrazol-3-yl)methoxy)ethyl)-2,6-dimethylmorpholine] it is 3.2 nM; for `CC(=O)N1CCN(CCOCc2cc(C)n(C3CCCCC3)n2)CC1` [Compound 22, 1-(4-(2-((1-cyclohexyl-5-methyl-1H-pyrazol-3-yl)methoxy)ethyl)-piperazin-1-yl)ethanone hydrochloride] it is 101 nM. The same measure for `Cc1cc(CCCN2CCOCC2)nn1C1CCCCC1` [Compound 7, 4-(3-(1-cyclohexyl-5-methyl-1H-pyrazol-3-yl)propyl)morpholine]: 53.3 nM; for `Cc1cc(COCCN2C[C@@H](C)N[C@@H](C)C2)nn1C1CCCCC1` [Compound 23, (3S,5R)-1-(2-((1-cyclohexyl-5-methyl-1H-pyrazol-3-yl)methoxy)ethyl)-3,5-dimethylpiperazine hydrochloride]: 488 nM; for `Clc1ccc(-n2ccc(COCCN3CCOCC3)n2)cc1Cl` [Compound 15, 4-(2-((1-(3,4-dichlorophenyl)-1H-pyrazol-3-yl)methoxy)ethyl)-morpholine]: 2.13 nM. The figure for `Cc1cc(CCCCN2CCOCC2)nn1-c1ccc(Cl)c(Cl)c1` [Compound 13, 4-(4-(1-(3,4-dichlorophenyl)-5-methyl-1H-pyrazol-3-yl)butyl)morpholine] is 8.62 nM; for `Cc1cc(COCCCN2CCOCC2)nn1C1CCCCC1` [Compound 20, 4-(3-((1-cyclohexyl-5-methyl-1H-pyrazol-3-yl)methoxy)propyl)-morpholine] it is 6.8 nM. In turn, `Cc1cc(COCCN2CCOCC2)nn1-c1ccc2ccccc2c1` [Compound 2, 4-(2-{[1-(2-naphthyl)-5-methyl-1H-pyrazol-3-yl]methoxy}ethyl)morpholine] registered a Ki of 209 nM. For the compound `Cc1cc(COCCN2CCOCC2)nn1C1CCCCC1` [Compound 6, 4-(2-((1-cyclohexyl-5-methyl-1H-pyrazol-3-yl)methoxy)ethyl)-morpholine], the Ki came to 23.6 nM. The same measure for `Cc1cc(COCCN2CCOCC2)nn1C1CCCC1` [Compound 21, 4-(2-((1-cyclopentyl-5-methyl-1H-pyrazol-3-yl)methoxy)ethyl)-morpholine]: 240 nM; for `Cc1cc(CCCN2CCOCC2)nn1-c1ccc(Cl)c(Cl)c1` [Compound 3, 4-{3-[1-(3,4-dichlorophenyl)-5-methyl-1H-pyrazol-3-yl]propyl}morpholine]: 4.74 nM; for `Cc1c(COCCN2CCOCC2)nn(C2CCCCC2)c1C` [Compound 26, 4-(2-((1-cyclohexyl-4,5-dimethyl-1H-pyrazol-3-yl)methoxy)ethyl)-morpholine hydrochloride]: 110 nM. `Cc1cc(COCCN2CCCCC2)nn1-c1ccc(Cl)c(Cl)c1` [Compound 9, 1-(2-((1-(3,4-dichlorophenyl)-5-methyl-1H-pyrazol-3-yl)methoxy)ethyl)-piperidine] had an inhibitory constant (Ki) of 2.09 nM. The same measure for `Cc1c(COCCN2CCOCC2)nn(-c2ccc(Cl)c(Cl)c2)c1C` [Compound 16, 4-(2-((1-(3,4-dichlorophenyl)-4,5-dimethyl-1H-pyrazol-3-yl)methoxy)ethyl)-morpholine]: 22.9 nM; for `Cc1cc(CCCN2CCOCC2)nn1-c1cnc2ccccc2c1` [Compound 14, 4-(3-(5-methyl-1-(quinolin-3-yl)-1H-pyrazol-3-yl)propyl)morpholine]: 281 nM. Compound `CC(=O)N1CCN(CCOCc2cc(C)n(-c3ccc(Cl)c(Cl)c3)n2)CC1` [Compound 10, 1-(4-(2-((1-(3,4-dichlorophenyl)-5-methyl-1H-pyrazol-3-yl)methoxy)ethyl)-piperazin-1-yl)-ethanone] showed an inhibition constant (Ki) of 14.6 nM. The figure for `c1cn(C2CCCCC2)nc1COCCN1CCOCC1` [Compound 25, 4-(2-((1-cyclohexyl-1H-pyrazol-3-yl)methoxy)ethyl)-morpholine-hydrochloride] is 11.3 nM.

`Cc1cc(COCCN2CCCC2)nn1-c1ccc(Cl)c(Cl)c1` [Compound 8, 1-(3,4-dichlorophenyl)-5-methyl-3-((2-(pyrrolidin-1-yl)ethoxy)methyl)-1H-pyrazole]: the Ki is 6.12 nM. The figure for `Cc1cc(CCOCCN2CCOCC2)nn1-c1ccc(Cl)c(Cl)c1` [Compound 5, 4-(2-{2-[1-(3,4-dichlorophenyl)-5-methyl-1H-pyrazol-3-yl]ethoxy)ethyl}morpholine] is 113 nM. The same measure for `c1ccc2ncc(-n3ccc(CCCN4CCOCC4)n3)cc2c1` [Compound 17, 4-(3-(1-(quinolin-3-yl)-1H-pyrazol-3-yl)propyl)morpholine]: 154 nM.

`Cc1cc(CCOCCN2CCOCC2)nn1C1CCCCC1` [Compound 24, 4-(2-(2-(1-cyclohexyl-5-methyl-1H-pyrazol-3-yl)ethoxy)ethyl)-morpholine hydrochloride]: the affinity corresponds to a Ki of 266 nM. The same measure for `Cc1cc(COCCN2CCOCC2)nn1-c1cnc2ccccc2c1` [Compound 12, 4-(2-((5-methyl-1-(quinolin-3-yl)-1H-pyrazol-3-yl)methoxy)ethyl)-morpholine]: 771 nM.
